Source: patent US8288548B2, “Oxazolo[5-4-b]pyridin-5-yl compounds” (Eli Lilly and Company, priority 2010, dated 2012)
Several values for one entry are separate records, joined by “and”; a condition that tells them apart may be missing. Equal values may be shown once.

How the values were obtained:
[1] = system: p38 MAP kinase; assay: In vivo inhibition of p38 MAP kinase in U87MG tumor-bearing mice (p-MAPKAPK2 in tumor lysates); parameters: species or system athymic nude mice; conditions: oral, 2 hours after dosing
Description: A murine xenograft model utilizing the human tumor cell line, U87MG, is used for assessment of inhibition of p38 MAP kinase in tumors
Female athymic nude mice (24-26 g, Harlan) are injected subcutaneously in the rear flank with 5×10^6 U87MG cells per animal Cells are injected in a 0.2 mL volume with a 1:1 mixture of cell culture media and BD […]™ matrix. 7 days after implant tumors are measured using a caliper and the data recorded. Tumors are measured twice weekly thereafter and the tumor size is recorded. When tumors reach an average volume of approximately 250 mm^3 (usually 10-15 days after implant), animals are randomized into groups of 8-10 for treatment. Animals are then dosed orally with 0.2 mL vehicle (1% HEC, 0.25% TWEEN® 80, 0.05% antifoam) alone or vehicle containing test compound. 2 Hours after dosing, animals are euthanized. […]
p-MAPKAPK2 levels in the tumor lysates are determined using a Mesoscale Discovery (MSD) capture ELISA kit (2 Phospho-MAPKAPK-2 (Thr334)). The concentration of protein in the lysates is determined using a BioRad DC protein assay kit (BioRad). […] Following incubation with the detection antibody, the MSD plate is washed followed by addition of MSD read buffer. After passage of current over the electrode, electro-chemiluminescence results in the generation of light that is quantified using the MSD Sector 6000 instrument. […]

[2] = system: p38 MAP kinase; assay: In vivo target inhibition (IVTI) of p38 MAP kinase in naïve C57BL/6 mice (p-MAPKAPK2 in PBMCs, flow cytometry); conditions: 2 hours post-dose
Description: IVTI of p38 MAP kinase is measured in peripheral blood mononuclear cells (PBMCs) of mice dosed orally with test compound using a flow cytometry assay for p-MAPKAPK2, a p38 MAP kinase substrate.
Male C57BL/6 mice (6-8 weeks old) are randomized into groups of 4. Test compound is administered by oral gavage in a 0.1 mL volume of vehicle (1% hydroxyethyl cellulose (HEC), 0.25% TWEEN® 80, 0.05% antifoam). Control animals are administered 0.1 mL vehicle with no test compound. For single dose and dose response studies, animals are sacrificed 2 hour post-dose. For time-course studies, animals are sacrificed at different time-points post-dose, typically, 1, 2, 4, 6, 18 and 24 hours. Whole blood is collected in EDTA-coated tubes (AQUISEL).
100 μL mouse whole blood is added into each EDTA tube and incubated at 37° C. for 10 minutes. […]
Samples are incubated at RT for 30 minutes. […] Samples are analyzed by flow cytometry (FACScaliber, BD). After defining the viable single cell population by side and forward scatter, the level of p-MAPKAPK2 is measured in the monocyte population defined (gated) by CD11b^hiLy6G^−.
The median fluorescence intensity in the monocyte cells is analyzed to determine the level of p-MAPKAPK2. […] Percent inhibition by test compound is determined by using the following equation: […]

[3] = system: p38 MAP kinase; assay: Inhibition of p38 MAP kinase in the cell-based assay (p-MAPKAPK2 cELISA, TNFα-stimulated HeLa cells); conditions: Homo sapiens, TNFα stimulation, read-out: Relative IC50

COCC[C@H](C)Nc1nc2ccc(-c3nc(C(C)(C)CO)[nH]c3-c3ccc(F)cc3F)nc2o1 [Example 1, 2-[5-(2,4-Difluorophenyl)-4-[2-[[(1S)-3-methoxy-1-methyl-propyl]amino]oxazolo[5,4-b]pyridin-5-yl]-1H-imidazol-2-yl]-2-methyl-propan-1-ol]
TED70 for p38 MAP kinase target inhibition in tumors [1]: 2.9 mg/kg
TEC70 ([1]; U87MG tumors): 31.3 ng/mL
Threshold Efficacious Dose for 70% inhibition (TED70) ([2]; oral, PBMCs): 5.1 mg/kg
Threshold Efficacious Concentration for 70% inhibition (TEC70) ([2]; plasma): 39.4 ng/mL and 0.084 μM
IC50 [3]: 1.6 nM
